From ChEMBL document CHEMBL1201862, “PubChem BioAssay data set” (2004)
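Assay format: 96-well plates, 48-hour exposure. GI50 marks 50% less growth.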 Activity calls are given as the source filed them. Cut-off read from the data, not from the text of the source: active = GI50 up to about 1.1 µM and inactive = higher. Where a SMILES comes first, the peptide text is derived from it. [ ]: non-standard residue; d: D form. The star is where a group is joined. Phe(4-NO2) = N[CH](Cc1ccc([N+](=O)[O-])cc1)C(=O)O; Cbz = O=C(OCc1ccccc1)*

Legend:
Assay in all cases: DTP human tumour cell line panel, 48 h
ACHN = test system: ACHN
OVCAR-5 = test system: OVCAR-5
TK-10 = test system: TK-10
OVCAR-8 = test system: OVCAR-8
DU-145 = test system: DU-145
COLO 205 = test system: COLO 205
BT-549 = test system: BT-549
MOLT-4 = test system: MOLT-4
CAKI-1 = test system: CAKI-1
SK-MEL-5 = test system: SK-MEL-5
UO-31 = test system: UO-31
NCI-H522 = test system: NCI-H522
786-0 = test system: 786-0
HT-29 = test system: HT-29
MCF7 = test system: MCF7
NCI/ADR-RES = test system: NCI/ADR-RES
A549 = test system: A549
SNB-19 = test system: SNB-19
IGROV-1 = test system: IGROV-1
HCT-116 = test system: HCT-116
MDA-MB-231 = test system: MDA-MB-231
SF-295 = test system: SF-295
MDA-N = test system: MDA-N
NCI-H460 = test system: NCI-H460
HOP-62 = test system: HOP-62
RXF 393 = test system: RXF 393
RPMI-8226 = test system: RPMI-8226
SW-620 = test system: SW-620
U-251 = test system: U-251
UACC-62 = test system: UACC-62
LOX IMVI = test system: LOX IMVI
OVCAR-4 = test system: OVCAR-4
Malme-3M = test system: Malme-3M
SK-MEL-2 = test system: SK-MEL-2
NCI-H23 = test system: NCI-H23
SR = test system: SR
MDA-MB-435 = test system: MDA-MB-435
UACC-257 = test system: UACC-257
T47D = test system: T47D
PC-3 = test system: PC-3
CCRF-CEM = test system: CCRF-CEM
EKVX = test system: EKVX
SK-OV-3 = test system: SK-OV-3
SNB-75 = test system: SNB-75
KM12 = test system: KM12
SK-MEL-28 = test system: SK-MEL-28
HCT-15 = test system: HCT-15
Hs-578T = test system: Hs-578T
SN12C = test system: SN12C
HOP-92 = test system: HOP-92
M14 = test system: M14
NCI-H226 = test system: NCI-H226
OVCAR-3 = test system: OVCAR-3
HL-60 = test system: HL-60
SF-268 = test system: SF-268
HCC 2998 = test system: HCC 2998
K562 = test system: K562
SF-539 = test system: SF-539

SMILES: CCOC(=O)CCC(NC(=O)OCc1ccccc1)C(=O)NC(CCC(=O)OCC)C(=O)NC(Cc1ccc([N+](=O)[O-])cc1)C(=O)NC(CCC(=O)OCC)C(=O)NC(CCC(=O)OCC)C(=O)OCC (stereo unspecified) (Cbz-E(OEt)E(OEt)[Phe(4-NO2)]E(OEt)E(OEt)-OEt; configuration not given here)
- GI50 (ACHN): > 100 µM (inactive)
- GI50 (OVCAR-5): > 100 µM (inactive)
- GI50 (TK-10): > 100 µM (inactive)
- GI50 (OVCAR-8): > 100 µM (inactive)
- GI50 (DU-145): > 100 µM (inactive)
- GI50 (COLO 205): > 100 µM (inactive)
- GI50 (BT-549): > 100 µM (inactive)
- GI50 (MOLT-4): > 100 µM (inactive)
- GI50 (CAKI-1): > 100 µM (inactive)
- GI50 (SK-MEL-5): > 100 µM (inactive)
- GI50 (UO-31): > 100 µM (inactive)
- GI50 (NCI-H522): > 100 µM (inactive)
- GI50 (786-0): > 100 µM (inactive)
- GI50 (HT-29): > 100 µM (inactive)
- GI50 (MCF7): > 100 µM (inactive)
- GI50 (NCI/ADR-RES): > 100 µM (inactive)
- GI50 (A549): > 100 µM (inactive)
- GI50 (SNB-19): > 100 µM (inactive)
- GI50 (IGROV-1): > 100 µM (inactive)
- GI50 (HCT-116): > 100 µM (inactive)
- GI50 (MDA-MB-231): > 100 µM (inactive)
- GI50 (SF-295): > 100 µM (inactive)
- GI50 (MDA-N): > 100 µM (inactive)
- GI50 (NCI-H460): > 100 µM (inactive)
- GI50 (HOP-62): > 100 µM (inactive)
- GI50 (RXF 393): > 100 µM (inactive)
- GI50 (RPMI-8226): > 100 µM (inactive)
- GI50 (SW-620): > 100 µM (inactive)
- GI50 (U-251): > 100 µM (inactive)
- GI50 (UACC-62): > 100 µM (inactive)
- GI50 (LOX IMVI): > 100 µM (inactive)
- GI50 (OVCAR-4): > 100 µM (inactive)
- GI50 (Malme-3M): > 100 µM (inactive)
- GI50 (SK-MEL-2): > 100 µM (inactive)
- GI50 (NCI-H23): > 100 µM (inactive)
- GI50 (SR): > 100 µM (inactive)
- GI50 (MDA-MB-435): > 100 µM (inactive)
- GI50 (UACC-257): > 100 µM (inactive)
- GI50 (T47D): > 100 µM (inactive)
- GI50 (PC-3): > 100 µM (inactive)
- GI50 (CCRF-CEM): > 100 µM (inactive)
- GI50 (EKVX): > 100 µM (inactive)
- GI50 (SK-OV-3): > 100 µM (inactive)
- GI50 (SNB-75): > 100 µM (inactive)
- GI50 (KM12): > 100 µM (inactive)
- GI50 (SK-MEL-28): > 100 µM (inactive)
- GI50 (HCT-15): > 100 µM
- GI50 (Hs-578T): > 100 µM (inactive)
- GI50 (SN12C): > 100 µM (inactive)

SMILES: Cc1nc(N/N=C/c2ccccc2Cl)[nH]c(=O)c1CCO
- GI50 (ACHN): > 100 µM (inactive)
- GI50 (OVCAR-5): > 100 µM (inactive)
- GI50 (TK-10): 76 µM (inactive)
- GI50 (OVCAR-8): 22 µM (inactive)
- GI50 (DU-145): > 100 µM (inactive)
- GI50 (COLO 205): > 100 µM (inactive)
- GI50 (HOP-92): 21.5 µM (inactive)
- GI50 (BT-549): 57.1 µM (inactive)
- GI50 (MOLT-4): > 100 µM (inactive)
- GI50 (CAKI-1): > 10 µM (inactive)
- GI50 (SK-MEL-5): > 100 µM (inactive)
- GI50 (UO-31): > 100 µM (inactive)
- GI50 (NCI-H522): 17.9 µM (inactive)
- GI50 (M14): 87.7 µM (inactive)
- GI50 (786-0): > 100 µM (inactive)
- GI50 (HT-29): > 100 µM (inactive)
- GI50 (MCF7): 36.2 µM (inactive)
- GI50 (NCI/ADR-RES): 61.1 µM (inactive)
- GI50 (A549): > 100 µM (inactive)
- GI50 (SNB-19): 51.6 µM (inactive)
- GI50 (IGROV-1): 34 µM (inactive)
- GI50 (HCT-116): 38.8 µM (inactive)
- GI50 (MDA-MB-231): 71 µM (inactive)
- GI50 (SF-295): 25.2 µM (inactive)
- GI50 (MDA-N): > 100 µM (inactive)
- GI50 (NCI-H460): 80 µM (inactive)
- GI50 (HOP-62): 21.1 µM (inactive)
- GI50 (RXF 393): 25.9 µM (inactive)
- GI50 (NCI-H226): > 100 µM (inactive)
- GI50 (RPMI-8226): 25.9 µM (inactive)
- GI50 (OVCAR-3): 19.6 µM (inactive)
- GI50 (SW-620): > 100 µM (inactive)
- GI50 (U-251): 49.3 µM (inactive)
- GI50 (HL-60): > 100 µM (inactive)
- GI50 (UACC-62): 34.4 µM (inactive)
- GI50 (LOX IMVI): > 100 µM (inactive)
- GI50 (OVCAR-4): 87.3 µM (inactive)
- GI50 (Malme-3M): 22 µM (inactive)
- GI50 (NCI-H23): 35.8 µM (inactive)
- GI50 (SR): > 100 µM (inactive)
- GI50 (MDA-MB-435): > 100 µM (inactive)
- GI50 (UACC-257): > 100 µM (inactive)
- GI50 (T47D): 24.8 µM (inactive)
- GI50 (SF-268): 33.5 µM (inactive)
- GI50 (PC-3): > 100 µM (inactive)
- GI50 (CCRF-CEM): > 100 µM (inactive)
- GI50 (EKVX): 86.9 µM (inactive)
- GI50 (SK-OV-3): 23.1 µM (inactive)
- GI50 (HCC 2998): > 100 µM (inactive)
- GI50 (SNB-75): 17.2 µM (inactive)
- GI50 (KM12): 59.7 µM (inactive)
- GI50 (SK-MEL-28): 73.8 µM (inactive)
- GI50 (K562): > 100 µM (inactive)
- GI50 (HCT-15): 81.1 µM
- GI50 (Hs-578T): 29.4 µM (inactive)
- GI50 (SN12C): 47.4 µM (inactive)
- GI50 (SF-539): 77.4 µM (inactive)
